Measured values reported in PMC4571851, “Arginine-Ornithine Antiporter ArcD Controls Arginine Metabolism and Interspecies Biofilm Development of Streptococcus gordonii” (The Journal of Biological Chemistry, 2015).

Target: T1, ArcD (arginine-ornithine antiporter) (Streptococcus gordonii, UniProt A8AYK8)
T1 construct: native full-length membrane transporter in intact wild-type S. gordonii cells; deletion mutant and complemented strain as controls
Experiment: inhibition of [3H]arginine uptake into intact wild-type cells
Type: cell-based
Settings: whole cells in PBS, 20 s, 50 μM labelled arginine, unlabelled ornithine at 100-fold excess

T1 sequence (A8AYK8 entry or part of it): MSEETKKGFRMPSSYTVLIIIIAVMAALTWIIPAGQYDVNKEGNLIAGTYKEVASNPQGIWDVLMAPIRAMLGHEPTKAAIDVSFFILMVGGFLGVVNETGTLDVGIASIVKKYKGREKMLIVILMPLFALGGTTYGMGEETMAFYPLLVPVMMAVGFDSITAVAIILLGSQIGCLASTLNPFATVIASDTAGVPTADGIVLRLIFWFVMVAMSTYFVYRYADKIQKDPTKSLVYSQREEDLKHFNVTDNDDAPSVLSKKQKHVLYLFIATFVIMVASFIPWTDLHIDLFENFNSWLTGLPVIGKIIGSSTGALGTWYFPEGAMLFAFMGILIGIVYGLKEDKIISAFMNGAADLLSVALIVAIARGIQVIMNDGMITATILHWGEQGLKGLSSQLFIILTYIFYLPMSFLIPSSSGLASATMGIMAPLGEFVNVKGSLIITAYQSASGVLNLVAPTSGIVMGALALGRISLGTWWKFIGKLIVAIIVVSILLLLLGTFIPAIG

NCCC[C@H](N)C(=O)O [Ornithine]
% inhibition at 100-fold excess: Ornithine also had a moderate effect on the inhibition of arginine uptake
